Experiments:
SW480 cells = experiment: Mitochondrial membrane potential (DiOC6/PI, flow cytometry); assay type: cell-based, human; details: SW480, treated with IC50, 48 h
Procedure: (§1) The fluorescent dyes PI and DIOC6 (3,3’-dihexyloxacarbocyanine iodide) were used to observe the depolarization of the mitochondrial membrane as well as possible cell membrane damage. For this method, 250,000 cells/well were initially seeded in 6-well culture plates during a 24 h adherence period at 37 °C in a 5% CO2 atmosphere. […] After treatment, cells were obtained by mechanical disaggregation, stained with DiOC6 and PI, and incubated at room temperature for 30 min in the dark. Ten thousand events were analyzed by flow cytometry with excitation at 488 nm and emission detection with green (530/15 nm) and red (610/20 nm) filters.

SW620 cells = experiment: as above; assay type: cell-based, human; details: SW620, treated with IC50, 48 h
Procedure: as §1

COc1cc(/C=C/C(=O)c2ccc(OCCCCCn3cc(Cn4cc(F)c(=O)[nH]c4=O)nn3)cc2)ccc1O [Compound 6d, (E)-5-fluoro-1-((1-(5-(4-(3-(4-hydroxy-3-methoxyphenyl)acryloyl)phenoxy)pentyl)-1H-1,2,3-triazol-4-yl)methyl)pyrimidine-2,4(1H,3H)-dione]
Dioc6 High population (live cells with high membrane polarization) (SW480 cells): 76.2%
Dioc6 Low population (cells that lose membrane polarization) (SW480 cells): 0%
PI+ population (membrane damage or dead cells) (SW480 cells): 23.7%
changes in the mitochondrial membrane potential (SW480 cells): do not induce significant changes
Dioc6 High population (live cells with high membrane polarization) (SW620 cells): 19.2%
Dioc6 Low population (cells that lose membrane polarization) (SW620 cells): 0.11%
PI+ population (membrane damage or dead cells) (SW620 cells): 76.1%
changes in the mitochondrial membrane potential (SW620 cells): do not induce significant changes

Source: publication PMC10144058, “New Hybrid Scaffolds Based on 5-FU/Curcumin: Synthesis, Cytotoxic, Antiproliferative and Pro-Apoptotic Effect” (Pharmaceutics, 2023)
